In the NIST ThermoML archive (doi:10.1016/j.jct.2005.10.006):
± gives the expanded uncertainty stated by the source.

Assay: xn = mol fraction of the nth substance listed
Conditions: Fluid (supercritical or subcritical phases), Spherical resonator

## N#N [nitrogen] + C
250 K, 30044 kPa, x1 = 0.1
  speed of sound: 707.81 ± 1.1 m/s
250 K, 30196 kPa, x1 = 0.2
  speed of sound: 665.27 ± 1.1 m/s
275 K, 105.1 kPa, x1 = 0.2
  speed of sound: 405.31 ± 0.67 m/s
275 K, 249.6 kPa, x1 = 0.2
  speed of sound: 404.93 ± 0.67 m/s
275 K, 498.5 kPa, x1 = 0.1
  speed of sound: 416.53 ± 0.68 m/s
275 K, 498.5 kPa, x1 = 0.2
  speed of sound: 404.25 ± 0.67 m/s
275 K, 998 kPa, x1 = 0.2
  speed of sound: 402.93 ± 0.66 m/s
275 K, 998.1 kPa, x1 = 0.1
  speed of sound: 414.81 ± 0.68 m/s
275 K, 1999 kPa, x1 = 0.1
  speed of sound: 411.66 ± 0.68 m/s
275 K, 2001 kPa, x1 = 0.2
  speed of sound: 400.6 ± 0.66 m/s
275 K, 3010 kPa, x1 = 0.2
  speed of sound: 398.72 ± 0.66 m/s
275 K, 3012 kPa, x1 = 0.1
  speed of sound: 408.95 ± 0.67 m/s
275 K, 4014 kPa, x1 = 0.2
  speed of sound: 397.39 ± 0.65 m/s
275 K, 4024 kPa, x1 = 0.1
  speed of sound: 406.81 ± 0.67 m/s
275 K, 5030 kPa, x1 = 0.2
  speed of sound: 396.69 ± 0.65 m/s
275 K, 6045 kPa, x1 = 0.2
  speed of sound: 396.72 ± 0.65 m/s
275 K, 6053 kPa, x1 = 0.1
  speed of sound: 404.7 ± 0.67 m/s
275 K, 7052 kPa, x1 = 0.2
  speed of sound: 397.57 ± 0.65 m/s
275 K, 8005 kPa, x1 = 0.1
  speed of sound: 406.18 ± 0.67 m/s
275 K, 8072 kPa, x1 = 0.2
  speed of sound: 399.34 ± 0.66 m/s
275 K, 9089 kPa, x1 = 0.2
  speed of sound: 402.1 ± 0.66 m/s
275 K, 9957 kPa, x1 = 0.1
  speed of sound: 411.99 ± 0.68 m/s
275 K, 10115 kPa, x1 = 0.2
  speed of sound: 405.96 ± 0.67 m/s
275 K, 11147 kPa, x1 = 0.2
  speed of sound: 410.97 ± 0.68 m/s
275 K, 12035 kPa, x1 = 0.1
  speed of sound: 423.61 ± 0.7 m/s
275 K, 12036 kPa, x1 = 0.1
  speed of sound: 423.62 ± 0.7 m/s
275 K, 12160 kPa, x1 = 0.2
  speed of sound: 416.99 ± 0.68 m/s
275 K, 13171 kPa, x1 = 0.2
  speed of sound: 424.08 ± 0.7 m/s
275 K, 14013 kPa, x1 = 0.2
  speed of sound: 430.77 ± 0.71 m/s
275 K, 14111 kPa, x1 = 0.1
  speed of sound: 440.93 ± 0.72 m/s
275 K, 15003 kPa, x1 = 0.2
  speed of sound: 439.49 ± 0.72 m/s
275 K, 15988 kPa, x1 = 0.1
  speed of sound: 460.87 ± 0.75 m/s
275 K, 15990 kPa, x1 = 0.2
  speed of sound: 449 ± 0.74 m/s
275 K, 17009 kPa, x1 = 0.2
  speed of sound: 459.59 ± 0.75 m/s
275 K, 17997 kPa, x1 = 0.2
  speed of sound: 470.47 ± 0.77 m/s
275 K, 18033 kPa, x1 = 0.1
  speed of sound: 486.14 ± 0.79 m/s
275 K, 19084 kPa, x1 = 0.2
  speed of sound: 483.04 ± 0.79 m/s
275 K, 19680 kPa, x1 = 0.2
  speed of sound: 490.13 ± 0.8 m/s
275 K, 20228 kPa, x1 = 0.1
  speed of sound: 515.84 ± 0.84 m/s
275 K, 24821 kPa, x1 = 0.1
  speed of sound: 581.11 ± 0.95 m/s
275 K, 29257 kPa, x1 = 0.1
  speed of sound: 642.82 ± 1 m/s
275 K, 29972 kPa, x1 = 0.2
  speed of sound: 619.3 ± 1 m/s
300 K, 199.5 kPa, x1 = 0.1
  speed of sound: 434.92 ± 0.71 m/s
300 K, 248.5 kPa, x1 = 0.2
  speed of sound: 421.88 ± 0.69 m/s
300 K, 480.1 kPa, x1 = 0.5422
  speed of sound: 386.4 ± 0.64 m/s
300 K, 498 kPa, x1 = 0.1
  speed of sound: 434.24 ± 0.71 m/s
300 K, 498.6 kPa, x1 = 0.2
  speed of sound: 421.47 ± 0.69 m/s
300 K, 707.5 kPa, x1 = 0.5422
  speed of sound: 386.45 ± 0.64 m/s
300 K, 996.8 kPa, x1 = 0.1
  speed of sound: 433.15 ± 0.71 m/s
300 K, 1191 kPa, x1 = 0.5422
  speed of sound: 386.59 ± 0.64 m/s
300 K, 1998 kPa, x1 = 0.1
  speed of sound: 431.25 ± 0.71 m/s
300 K, 1999 kPa, x1 = 0.2
  speed of sound: 419.47 ± 0.69 m/s
300 K, 2344 kPa, x1 = 0.5422
  speed of sound: 387.23 ± 0.64 m/s
300 K, 3003 kPa, x1 = 0.1
  speed of sound: 429.75 ± 0.7 m/s
300 K, 4015 kPa, x1 = 0.2
  speed of sound: 418.25 ± 0.69 m/s
300 K, 4016 kPa, x1 = 0.1
  speed of sound: 428.73 ± 0.7 m/s
300 K, 4632 kPa, x1 = 0.5422
  speed of sound: 389.87 ± 0.64 m/s
300 K, 5019 kPa, x1 = 0.1
  speed of sound: 428.26 ± 0.7 m/s
300 K, 6030 kPa, x1 = 0.1
  speed of sound: 428.38 ± 0.7 m/s
300 K, 6037 kPa, x1 = 0.2
  speed of sound: 419.02 ± 0.69 m/s
300 K, 6838 kPa, x1 = 0.5422
  speed of sound: 394.27 ± 0.65 m/s
300 K, 7046 kPa, x1 = 0.1
  speed of sound: 429.17 ± 0.7 m/s
300 K, 8068 kPa, x1 = 0.2
  speed of sound: 422.18 ± 0.69 m/s
300 K, 8086 kPa, x1 = 0.1
  speed of sound: 430.75 ± 0.71 m/s
300 K, 8994 kPa, x1 = 0.5422
  speed of sound: 400.43 ± 0.66 m/s
300 K, 10104 kPa, x1 = 0.2
  speed of sound: 428.03 ± 0.7 m/s
300 K, 10134 kPa, x1 = 0.1
  speed of sound: 436.25 ± 0.71 m/s
300 K, 11262 kPa, x1 = 0.5422
  speed of sound: 408.61 ± 0.67 m/s
300 K, 11983 kPa, x1 = 0.2
  speed of sound: 435.96 ± 0.71 m/s
300 K, 12193 kPa, x1 = 0.1
  speed of sound: 445.26 ± 0.73 m/s
300 K, 14023 kPa, x1 = 0.2
  speed of sound: 447.31 ± 0.73 m/s
300 K, 14237 kPa, x1 = 0.1
  speed of sound: 457.66 ± 0.75 m/s
300 K, 16022 kPa, x1 = 0.2
  speed of sound: 461.03 ± 0.75 m/s
300 K, 16322 kPa, x1 = 0.1
  speed of sound: 473.66 ± 0.77 m/s
